{"source": "patent US12540143B2", "about": "“Methods and compositions for targeted protein degradation” (Ranok Therapeutics (Hangzhou) Co. Ltd., priority 2019, dated 2026)", "note": "Where a name gives a salt, the structure may show the parent alone.", "data": [{"test_system": "MV4-11 cells", "assay": "MV4-11 Cytotoxicity Assay", "assay_type": "cell-based, human", "conditions": "72 hr, CCK-8; read-out: MV4-11 cytotoxicity", "units": {"IC50": "nM"}, "values": [{"compound": "CC[C@@H](C)Nc1cc(C(=O)NC2C[C@H]3CC[C@H](C2)N3c2ccc(C(=O)c3ccc(CN4CCN(CC5CCN(C(=O)C[C@@H]6N=C(c7ccc(Cl)cc7)c7c(sc(C)c7C)-n7c(C)nnc76)CC5)CC4)cc3)cn2)c(C)cc1C(N)=O", "note": "(some centres unmarked) [Compound 25]", "IC50": "100 to 1000"}, {"compound": "CCc1cc(-c2nnc(C(N)=O)n2-c2ccc(CN3CCN(CC4CCN(C(=O)C[C@@H]5N=C(c6ccc(Cl)cc6)c6c(sc(C)c6C)-n6c(C)nnc65)CC4)CC3)cc2)c(O)cc1O", "note": "[Compound 121, (S)-4-(4-((4-((1-(2-(4-(4-chlorophenyl)-2,3,9-trimethyl-6H-thieno[3,2-f][1,2,4]triazolo[4,3-a][1,4]diazepin-6-yl)acetyl)piperidin-4-yl)methyl)piperazin-1-yl)methyl)phenyl)-5-(5-ethyl-2,4-dihydroxyphenyl)-4H-1,2,4-triazole-3-carboxamide hydrochloride]", "IC50": "< 100"}]}, {"test_system": "MV4-11 cells", "assay": "MV4-11 Cytotoxicity Assay", "assay_type": "cell-based, human", "conditions": "Homo sapiens, MV4-11, 72 h, read-out: MV4-11 cytotoxicity", "units": {"IC50": "nM"}, "values": [{"compound": "CCc1cc(-c2nnc(C(=O)NCC(F)(F)F)n2-c2ccc(CN3CCN(CC4CCN(C(=O)C[C@@H]5N=C(c6ccc(Cl)cc6)c6c(sc(C)c6C)-n6c(C)nnc65)CC4)CC3)cc2)c(O)cc1O", "note": "[Compound 14, 4-(4-((4-((1-(2-((6S)-4-(4-chlorophenyl)-2,3,9-trimethyl-6H-thieno[3,2-f][1,2,4]triazolo[4,3-a][1,4]diazepin-6-yl)acetyl)piperidin-4-yl)methyl)piperazin-1-yl)methyl)phenyl)-5-(5-ethyl-2,4-dihydroxyphenyl)-N-(2,2,2-trifluoroethyl)-4H-1,2,4-triazole-3-carboxamide, trifluoroacetic acid]", "IC50": "< 100"}]}, {"test_system": "MV4-11 cells", "assay": "MV4-11 Cytotoxicity Assay", "assay_type": "cell-based, human", "conditions": "Homo sapiens, MV4-11; 72 hr, CCK-8; read-out: MV4-11 cytotoxicity", "units": {"IC50": "nM"}, "values": [{"compound": "Cc1sc2c(c1C)C(c1ccc(Cl)cc1)=N[C@@H](CCNCCOc1ccc(-n3c(O)nnc3-c3cc(C(C)C)c(O)cc3O)cc1)c1nnc(C)n1-2", "note": "[Compound 62, (S)-4-(4-(4-(2-((2-(4-(4-chlorophenyl)-2,3,9-trimethyl-6H-thieno[3,2-f][1,2,4]triazolo[4,3-a][1,4]diazepin-6-yl)ethyl)amino)ethoxy)phenyl)-5-hydroxy-4H-1,2,4-triazol-3-yl)-6-isopropylbenzene-1,3-diol, trifluoroacetic acid]", "IC50": "100 to 1000"}, {"compound": "Cc1sc2c(c1C)C(c1ccc(Cl)cc1)=N[C@@H](CC(=O)N1CCC(CN3CCC(Cc4ccc(-n5c(O)nnc5-c5cc(C(C)C)c(O)cc5O)cc4)CC3)CC1)c1nnc(C)n1-2", "note": "[Compound 94, (S)-2-(4-(4-chlorophenyl)-2,3,9-trimethyl-6H-thieno[3,2-f][1,2,4]triazolo[4,3-a][1,4]diazepin-6-yl)-1-(4-((4-(4-(3-(2,4-dihydroxy-5-isopropylphenyl)-5-hydroxy-4H-1,2,4-triazol-4-yl)benzyl)piperidin-1-yl)methyl)piperidin-1-yl)ethan-1-one, trifluoroacetic acid]", "IC50": "< 100"}, {"compound": "CCN(Cc1ccc(OCCCNC(=O)C[C@@H]2N=C(c3ccc(Cl)cc3)c3c(sc(C)c3C)-n3c(C)nnc32)cc1)Cc1ccc(-n2c(C(=O)NCC(F)(F)F)nnc2-c2cc(C(C)C)c(O)cc2O)cc1", "note": "[Compound 102, (S)-4-(4-(((4-(3-(2-(4-(4-chlorophenyl)-2,3,9-trimethyl-6H-thieno[3,2-f][1,2,4]triazolo[4,3-a][1,4]diazepin-6-yl)acetamido)propoxy)benzyl)(ethyl)amino)methyl)phenyl)-5-(2,4-dihydroxy-5-isopropylphenyl)-N-(2,2,2-trifluoroethyl)-4H-1,2,4-triazole-3-carboxamide, trifluoroacetic acid]", "IC50": "< 100"}, {"compound": "CCc1cc(-c2nnc(O)n2-c2ccc(CN3CCC(C(=O)N4CCC(CNCC[C@@H]5N=C(c6ccc(Cl)cc6)c6c(sc(C)c6C)-n6c(C)nnc65)CC4)CC3)cc2)c(O)cc1O", "note": "[Compound 68, (4-(((2-((6S)-4-(4-chlorophenyl)-2,3,9-trimethyl-6H-thieno[3,2-f][1,2,4]triazolo[4,3-a][1,4]diazepin-6-yl)ethyl)amino)methyl)piperidin-1-yl)(1-(4-(3-(5-ethyl-2,4-dihydroxyphenyl)-5-hydroxy-4H-1,2,4-triazol-4-yl)benzyl)piperidin-4-yl) methanone, trifluoroacetic acid]", "IC50": "100 to 1000"}, {"compound": "Cc1sc2c(c1C)C(c1ccc(Cl)cc1)=N[C@@H](CC(=O)N1CCC(Cc3ccc(CN(C)Cc4ccc(-n5c(O)nnc5-c5cc(C(C)C)c(O)cc5O)cc4)cc3)CC1)c1nnc(C)n1-2", "note": "[Compound 83, (S)-2-(4-(4-chlorophenyl)-2,3,9-trimethyl-6H-thieno[3,2-f][1,2,4]triazolo[4,3-a][1,4]diazepin-6-yl)-1-(4-(4-(((4-(3-(2,4-dihydroxy-5-isopropylphenyl)-5-hydroxy-4H-1,2,4-triazol-4-yl)benzyl)(methyl)amino)methyl)benzyl)piperidin-1-yl)ethan-1-one, trifluoroacetic acid]", "IC50": "< 100"}, {"compound": "Cc1sc2c(c1C)C(c1ccc(Cl)cc1)=N[C@@H](CC(=O)NCC(=O)NCCOc1ccc(-n3c(O)nnc3-c3cc(C(C)C)c(O)cc3O)cc1)c1nnc(C)n1-2", "note": "[Compound 54, (S)-2-(4-(4-chlorophenyl)-2,3,9-trimethyl-6H-thieno[3,2-f][1,2,4]triazolo[4,3-a][1,4]diazepin-6-yl)-N-(2-((2-(4-(3-(2,4-dihydroxy-5-isopropylphenyl)-5-hydroxy-4H-1,2,4-triazol-4-yl)phenoxy)ethyl)amino)-2-oxoethyl)acetamide]", "IC50": "100 to 1000"}, {"compound": "Cc1sc2c(c1C)C(c1ccc(Cl)cc1)=N[C@@H](CC(=O)NCCOCCOCCOc1ccc(-n3c(S)nnc3-c3cc(C(C)C)c(O)cc3O)cc1)c1nnc(C)n1-2", "note": "[Compound 34, (S)-2-(4-(4-chlorophenyl)-2,3,9-trimethyl-6H-thieno[3,2-f][1,2,4]triazolo[4,3-a][1,4]diazepin-6-yl)-N-(2-(2-(2-(4-(3-(2,4-dihydroxy-5-isopropylphenyl)-5-mercapto-4H-1,2,4-triazol-4-yl)phenoxy)ethoxy)ethoxy)ethyl)acetamide]", "IC50": "100 to 1000"}, {"compound": "Cc1sc2c(c1C)C(c1ccc(Cl)cc1)=N[C@@H](CCNCC1CCN(C(=O)C3CCN(Cc4ccc(-n5c(O)nnc5-c5cc(C(C)C)c(O)cc5O)cc4)CC3)CC1)c1nnc(C)n1-2", "note": "[Compound 64, (4-(((2-((6S)-4-(4-chlorophenyl)-2,3,9-trimethyl-6H-thieno[3,2-f][1,2,4]triazolo[4,3-a][1,4]diazepin-6-yl)ethyl)amino)methyl)piperidin-1-yl)(1-(4-(3-(2,4-dihydroxy-5-isopropylphenyl)-5-hydroxy-4H-1,2,4-triazol-4-yl)benzyl)piperidin-4-yl) methanone, trifluoroacetic acid]", "IC50": "100 to 1000"}, {"compound": "Cc1sc2c(c1C)C(c1ccc(Cl)cc1)=N[C@@H](CC(=O)N1CCC(CN3CCC(Cc4ccc(-n5c(C(=O)NCC(F)(F)F)nnc5-c5cc(C(C)C)c(O)cc5O)cc4)CC3)CC1)c1nnc(C)n1-2", "note": "[Compound 85, (S)-4-(4-((1-((1-(2-(4-(4-chlorophenyl)-2,3,9-trimethyl-6H-thieno[3,2-f][1,2,4]triazolo[4,3-a][1,4]diazepin-6-yl)acetyl)piperidin-4-yl)methyl)piperidin-4-yl)methyl)phenyl)-5-(2,4-dihydroxy-5-isopropylphenyl)-N-(2,2,2-trifluoroethyl)-4H-1,2,4-triazole-3-carboxamide, formic acid]", "IC50": "< 100"}, {"compound": "Cc1sc2c(c1C)C(c1ccc(Cl)cc1)=N[C@@H](CC(=O)NCC(=O)NCCOc1ccc(-n3c(S)nnc3-c3cc(C(C)C)c(O)cc3O)cc1)c1nnc(C)n1-2", "note": "[Compound 48, (S)-2-(4-(4-chlorophenyl)-2,3,9-trimethyl-6H-thieno[3,2-f][1,2,4]triazolo[4,3-a][1,4]diazepin-6-yl)-N-(2-((2-(4-(3-(2,4-dihydroxy-5-isopropylphenyl)-5-mercapto-4H-1,2,4-triazol-4-yl)phenoxy)ethyl)amino)-2-oxoethyl)acetamide]", "IC50": "100 to 1000"}, {"compound": "Cc1cc(-c2nnc(C(=O)NCC(F)(F)F)n2-c2ccc(CN3CCN(CC4CCN(C(=O)C[C@@H]5N=C(c6ccc(Cl)cc6)c6c(sc(C)c6C)-n6c(C)nnc65)CC4)CC3)cc2)c(O)cc1O", "note": "[Compound 15, 4-(4-((4-((1-(2-((6S)-4-(4-chlorophenyl)-2,3,9-trimethyl-6H-thieno[3,2-f][1,2,4]triazolo[4,3-a][1,4]diazepin-6-yl)acetyl)piperidin-4-yl)methyl)piperazin-1-yl)methyl)phenyl)-5-(2,4-dihydroxy-5-methylphenyl)-N-(2,2,2-trifluoroethyl)-4H-1,2,4-triazole-3-carboxamide, trifluoroacetic acid]", "IC50": "< 100"}, {"compound": "CCNC(=O)c1nnc(-c2cc(C(C)C)c(O)cc2O)n1-c1ccc(CC2CCN(CC3CCN(C(=O)C[C@@H]4N=C(c5ccc(Cl)cc5)c5c(sc(C)c5C)-n5c(C)nnc54)CC3)CC2)cc1", "note": "[Compound 90, (S)-4-(4-((1-((1-(2-(4-(4-chlorophenyl)-2,3,9-trimethyl-6H-thieno[3,2-f][1,2,4]triazolo[4,3-a][1,4]diazepin-6-yl)acetyl)piperidin-4-yl)methyl)piperidin-4-yl)methyl)phenyl)-5-(2,4-dihydroxy-5-isopropylphenyl)-N-ethyl-4H-1,2,4-triazole-3-carboxamide]", "IC50": "< 100"}, {"compound": "Cc1sc2c(c1C)C(c1ccc(Cl)cc1)=N[C@@H](CC(=O)NCC1CN(C(=O)C3CCN(Cc4ccc(-n5c(O)nnc5-c5cc(C(C)C)c(O)cc5O)cc4)CC3)C1)c1nnc(C)n1-2", "note": "[Compound 59, 2-((6S)-4-(4-chlorophenyl)-2,3,9-trimethyl-6H-thieno[3,2-f][1,2,4]triazolo[4,3-a][1,4]diazepin-6-yl)-N-((1-(1-(4-(3-(2,4-dihydroxy-5-isopropylphenyl)-5-hydroxy-4H-1,2,4-triazol-4-yl)benzyl)piperidine-4-carbonyl)azetidin-3-yl)methyl)acetamide, trifluoroacetic acid]", "IC50": "< 100"}, {"compound": "Cc1sc2c(c1C)C(c1ccc(Cl)cc1)=N[C@@H](CC(=O)NCCOc1cccc(CN(C)Cc3ccc(-n4c(O)nnc4-c4cc(C(C)C)c(O)cc4O)cc3)c1)c1nnc(C)n1-2", "note": "[Compound 50, 2-((6S)-4-(4-chlorophenyl)-2,3,9-trimethyl-6H-thieno[3,2-f][1,2,4]triazolo[4,3-a][1,4]diazepin-6-yl)-N-(2-(3-(((4-(3-(2,4-dihydroxy-5-isopropylphenyl)-5-hydroxy-4H-1,2,4-triazol-4-yl)benzyl)(methyl)amino)methyl)phenoxy)ethyl)acetamide, trifluoroacetic acid, trifluoroacetic acid, trifluoroacetic acid, trifluoroacetic …]", "IC50": "< 100"}]}]}
